# Assay results as given in patent publication US20180118721A1, “PYRIMIDINE DERIVATIVES” (Merck Patent GmbH, priority 2015, published 2018).
# pIC50: −log10 of the molar value.
# Key:
# [1] = Shake flask solubility measurement; assay type: physicochemical; conditions: aqueous buffer, thermodynamic from solid, phosphate buffer pH 7.4, 37° C.
# Procedure: Compound solubility in aqueous solution is determined by a standard method in the art, the shake flask method. Solubility measurement is performed under equilibrium conditions at pH 7.4. Samples are prepared by dissolving an excess of the test compound in a phosphate buffer (made up of 3,954 g sodium hydrogenphosphate-monohydrate, 6,024 g sodium chloride, 950 ml ultrapure water and adjusted to pH 7.4 with 0.1 M NaOH or 0.1 M HCl). These samples are shaken at 37° C. with 450 rpm (shaker: TiMix control Bühler) for 24 h in total until equilibrium is reached. After 7 hours shaking, the pH value of the sample is controlled and adjusted, if necessary. It is also checked that the sample (test compound) is available in excess. Shortly before the end of 24 h, samples are checked again for pH and precipitate. At the end of 24 h and after separation of the solid by filtration, the concentration of the compound in the filtrate is determined by liquid chromatography using […] (LC-UV).
# Sample preparation: Incubation hood: TH 15 Bühler; pH device 766 Calimatic Knick; pH electrode InLab 423 Mettler
# Chromatography Conditions:
# Column: Chromolith RP18e 100×3 mm
# Wavelength range: 190-400 nm • select a suitable evaluation wavelength
# Injection volume: Probe 5 μl and 15 μl; Standard 5 μl
# Column stove temperature: 37° C.
# Eluent A: water/formic acid (999:1; v/v)
# Eluent B: acetonitrile/formic acid (999:1; v/v)
# [2] = target: T1, purified human recombinant MTH1 (human MTH1, residues 42-197) (Homo sapiens, UniProt P36639); assay: MTH1 enzymatic assay (luminescence-based, PPiLight); assay type: biochemical; conditions: Table 2
# T1 construct: human MTH1, residues 42-197, Uniprot-ID: P36639, expressed in E. coli; made in house; host or cells: E. coli
structure (smiles),measurement,setting,value
"CNc1cc(-c2cccc(Cl)c2Cl)nc(N)n1 [TH-287, reference compound]",solubility at 24 h,[1],22 µg/mL
same,pIC50,[2],> 9.00
